Experimental data: ChEMBL document CHEMBL5724558, “Image-based profiling of drug vulnerabilities in CRC organoids” (2024)
“And” between values parts separate entries of the source, which are not always exact repeats. Equal values may be shown once. Square brackets hold non-standard residues; d marks the D form. Peptide text beside a SMILES is read from it. Arg(Me) = CNC(=N)NCCC[C@H](N)C(=O)O; d3Pal = N[C@H](Cc1cccnc1)C(=O)O; azaGly = NNC(=O)O

Assays:
Format in all cases: functional, Homo sapiens
Set-up in all cases: dose or concentration left out as unconfirmed
Colon cancer organoid [1] = experiment: (§1) Image-based profiling of donated chemical probes and chemogenomic kinase set in O06 CRC organoid. Image analysis is performed on the sum area metric, and the data were normalized to the DMSO control. After imaging the organoid viability is measured using the OneGloEX Luciferase Assay System. The normalized viability data and sum area are reported.
Colon cancer organoid [2] = experiment: as §1, with “O09” for “O06”
Colon cancer organoid [3] = experiment: as §1, with “O21” for “O06”

Row | SMILES | Cell Viability (Colon cancer organoid [1]; Replication number 1) | Cell Viability (Colon cancer organoid [1]; Replication number 2) | Cell Viability (Colon cancer organoid [2]; Replication number 1) | Cell Viability (Colon cancer organoid [2]; Replication number 2) | Cell Viability (Colon cancer organoid [3]; Replication number 1) | Cell Viability (Colon cancer organoid [3]; Replication number 2)
1 | CO[C@H]1CNC[C@@H](OCC2CCC(F)(F)CC2)[C@@H]1Nc1ncc(-c2cncc(C)c2)c2cc(C)c(=O)[nH]c12 | 159.604% and 115.973% | 145.077% and 98.9379% | 183.516% and 118.934% | 127.49% and 119.734% | 117.954% and 107.577% | 97.9494% and 89.6778%
2 | C[C@@H](c1cccc(C#N)c1)n1cc(Cl)cc(C(N)=O)c1=N.Cl | 94.9066% and 108.826% | 100.434% and 114.368% | 93.1286% and 91.7219% | 106.099% and 101.903% | 94.9994% and 100.946% | 88.3604% and 82.5969%
3 | CN1CCN(c2ccnc(NCCc3ccccc3)n2)CC1 [TP-040n] | 105.696% and 108.533% | 89.6424% and 87.2137% | 119.963% and 93.2958% | 137.241% and 93.2958% | 124.161% and 101.443% | 125.774% and 83.8743%
4 | CCCCN(Cc1ccccc1)C(=O)c1ccc(S(=O)(=O)Nc2ccccc2)cc1 | 128.543% and 118.777% | 114.906% and 147.848% | 116.29% and 115.073% | 99.5038% and 96.018% | 85.4191% and 92.3751% | 113.731% and 107.676%
5 | CC(=O)c1c(NS(C)(=O)=O)c2cc(-c3ccc(Cl)cc3)c(-c3ccc(Cl)cc3Cl)nc2n(C)c1=O [MRL-CB1-NC] | 116.774% and 92.5059% | 73.5946% and 87.6518% | 160.352% and 102.495% | 132.682% and 100.183% | 126.549% and 100.129% | 108.062% and 94.898%
6 | CCCc1cc(C)[nH]c(=O)c1CNC(=O)c1cc(-c2ccc(N3CCN(C(C)C)CC3)nc2)cc2c1cnn2C(C)C | 117.017% and 105.342% | 150.35% and 108.975% | 144.261% and 110.819% | 125.635% and 91.796% | 90.7936% and 81.7113% | 90.0059% and 120.286%
7 | COc1ccccc1-c1cc(Nc2cccc(CS(N)(=O)=O)c2)ncn1 | 93.0282% and 99.0402% | 104.398% and 112.494% | 75.7277% and 70.3132% | 83.1557% and 105.011% | 89.4274% and 95.331% | 104.034% and 107.665%
8 | O=C(NC[C@H](O)CN1CCc2ccccc2C1)c1ccnc(NC2CCC2)c1 | 27.5023% and 69.1007% | 41.1138% and 71.2161% | 64.9401% and 74.8841% | 97.6148% and 75.2613% | 82.4125% and 78.1842% | 61.8775% and 72.494%
9 | COc1ccccc1-c1cc(N2CCN(C(=O)OC(C)(C)C)CC2)c(N)nn1 | 179.264% and 129.02% | 154.723% and 113.755% | 86.2709% and 84.3895% | 173.59% and 117.453% | 94.3574% and 85.8263% | 106.056% and 125.119%
10 | Cc1ccc2nc(NCCN)c3ncc(C)n3c2c1.O=C(O)C(F)(F)F.O=C(O)C(F)(F)F | 119.625% and 106.83% | 110.324% and 90.8997% | 111% and 93.003% | 101.477% and 77.7459% | 135.691% and 125.993% | 139.56% and 141.634%
11 | CC1=C(C)C(=O)C(C(C)(C)CC(=O)N(CCCCSC[C@H]2O[C@@H](n3cnc4c(N)ncnc43)[C@H](O)[C@@H]2O)Cc2cccc(-c3ccc(Cl)cc3)c2)=C(C)C1=O | 167.397% and 142.309% | 129.695% and 107.541% | 154.166% and 104.56% | 134.087% and 102.344% | 85.391% and 116.982% | 82.6503% and 80.5489%
12 | Nc1nc(NCc2ccccc2)nc(-c2ccccc2CO)n1 [Ogerin] | 105.073% and 119.514% | 91.1794% and 124.7% | 84.1314% and 95.0982% | 82.0321% and 100.912% | 116.019% and 92.2153% | 95.1453% and 93.8137%
13 | CO[C@H]1CC[C@H](CNc2ccc(S(=O)(=O)NC(=O)c3ccc(N4CCN(CC5=C(c6ccc(Cl)cc6)CC(C)(C)CC5)CC4)cc3Oc3cnc4[nH]ccc4c3)cc2[N+](=O)[O-])CC1 [A-1211212] | 28.9146% and 70.6883% | 21.4505% and 46.3719% | 50.8739% and 100.725% | 51.2572% and 87.2324% | 101.35% and 117.861% | 64.2952% and 94.8335%
14 | Cc1nc(C2CCN(C(=O)c3ccc(OC(F)(F)F)cc3N)CC2)c2ncc(N3CCN(C)CC3)cc2n1 [BAY-693] | 107.628% and 117.814% | 129.663% and 123.258% | 87.1033% and 97.7241% | 88.4972% and 107.653% | 120.305% and 115.678% | 95.3265% and 86.6757%
15 | CC(=O)Nc1cccc(-n2c(=O)n(C3CC3)c(=O)c3c(Nc4ccc(I)cc4F)n(C)c(=O)c(C)c32)c1 [TRAMETINIB] | 5.765% and 5.759% | 5.411% and 4.125% | 7.185% and 14.6007% | 7.6439% and 10.8886% | 17.3032% and 24.3122% | 17.3841% and 17.3982%
16 | O=C(N[C@H]1CCCCC/C=C\C2C[C@@]2(C(=O)O)NC(=O)[C@@H]2C[C@@H](Oc3ccncc3)CN2C1=O)OC1CCCC1 (stereo partly specified) [BI 1675] | 69.4015% and 71.6628% | 66.5819% and 62.7776% | 116.319% and 81.4707% | 190.904% and 132.895% | 85.4317% and 92.5614% | 88.5187% and 94.3878%
17 | CNC(=N)NCCC[C@H](NC(=O)[C@H](CC(C)C)NC(=O)NNC(=O)[C@H](Cc1ccccc1)NC(=O)[C@H](CO)NC(=O)[C@H](CC(N)=O)NC(=O)[C@@H](Cc1cccnc1)NC(=O)[C@H](N)Cc1ccc(O)cc1)C(=O)NCC(N)=O [KISS1-543] (H-[dY][d3Pal]NSF[azaGly]L[Arg(Me)]G-NH2) | 118.716% and 117.33% | 90.7753% and 88.3624% | 107.101% and 81.2318% | 83.0393% and 106.024% | 119.966% and 118.758% | 94.392% and 98.4694%
18 | C=CC(=O)Nc1ccc2[nH]c(=O)n(C3CCN(C(=O)c4ccc(-c5nc6cc[nH]c(=O)c6cc5-c5ccccc5)cc4)CC3)c2c1 | 120.248% and 109.056% | 107.251% and 98.7147% | 86.8441% and 100.234% | 90.0124% and 91.2435% | 115.206% and 106.481% | 111.195% and 142.785%
19 | COc1c(C)cc(NC(=O)c2nn(Cc3ccc(F)cc3)c3c2CN(C(=O)c2ccc[nH]2)C[C@]3(C)C(N)=O)cc1C | 208.8% and 152.94% | 183.011% and 147.451% | 100.506% and 104.328% | 74.723% and 85.5242% | 89.287% and 106.401% | 91.8219% and 96.6587%
20 | CN(C)C(=O)Cn1cc(-c2ccc(-c3nnc4ccccn34)cc2)cn1 | 116.057% and 113.952% | 85.0591% and 113.728% | 166.343% and 115.942% | 81.4375% and 98.5321% | 108.728% and 107.596% | 93.8353% and 96.1497%
21 | O=C(Nc1cccnc1)c1cc(-c2ccnc(F)c2)ccc1OCc1ccccc1 | 114.96% and 114.62% | 124.178% and 97.892% | 214.708% and 117.189% | 126.13% and 109.87% | 112.865% and 104.808% | 105.956% and 96.1497%
22 | COc1cc2c(cc1OCCCN1CCCC1)N=C(N)C21CCC1 | 110.816% and 131.678% | 106.27% and 117.339% | 70.9946% and 111.515% | 77.9538% and 123.155% | 92.2277% and 112.28% | 68.723% and 97.1957%
23 | Cn1c(C2(NC(=O)c3ccc(NCC4CCCCC4)nc3)CCC2)nc2ccc(/C=C/C(=O)O)cc21 [BI 7656] | 99.3838% and 109.64% | 121.504% and 124.591% | 151.482% and 117.548% | 136.087% and 97.2553% | 95.8092% and 94.6419% | 106.526% and 92.3751%
24 | O=C(NOCC1CC1)c1ccc(F)c(F)c1Nc1ccc(I)cc1Cl [CI-1040] | 3.322% and 9.147% | 3.495% and 11.5373% | 15.162% and 31.6659% | 27.5568% and 31.5843% | 35.0082% and 32.446% | 40.3855% and 37.5387%
25 | Cc1ccccc1Oc1cc(-n2c(=O)cc(C(F)(F)F)[nH]c2=O)c2ccccc2c1Cl [BAY-069] | 107.213% and 122.915% | 117.719% and 113.888% | 112.474% and 107.103% | 148.882% and 102.498% | 99.7794% and 121.135% | 101.27% and 93.8137%
26 | CCNC(=O)c1cc2c(N3CCOCC3C)ccnc2[nH]1 (stereo unspecified) | 98.3654% and 112.881% | 119.727% and 97.8383% | 68.1497% and 105.84% | 64.0482% and 77.4005% | 130.503% and 111.772% | 91.1701% and 91.3265%
